Earlier results in patent publication US5349105A, “Alkyl, alkoxy and thioalkoxy substituted diphenyl acetylenes having retinoid like activity” (Allergan, Inc., priority 1993, dated 1994).

Test system: ornithine decarboxylase (ODC)
Conditions: literature background

**Q.** For `CC1=C(/C=C/C(C)=C/C=C/C(C)=C/C(=O)O)C(C)(C)CCC1` [Retinoic acid], which “inhibition of induction of ODC activity by TPA (in words)” value (retinoic acid) is on record?
**A.** inhibits this induction of ODC activity by TPA

**Q.** Which “induction of ODC activity (in words)” value (TPA as inducer) does the source give for `CCCCCCCCCCCCCC(=O)O[C@@H]1[C@@H](C)[C@@]2(O)[C@@H](C=C(CO)C[C@]3(O)C(=O)C(C)=C[C@@H]23)[C@@H]2C(C)(C)[C@]12OC(C)=O` [12-0-tetradecanoyl-phorbol-13-acetate] here?
**A.** induces ODC activity
